In brackets after ≈: the same amount, converted by molar mass.
What was measured:
[1] = system: Human ovarian cancer OVCAR-3 cells; test: In vivo efficacy study against OVCAR-3 tumors (subcutaneous tumor-bearing model); set-up: species or system BALB/c nude mice; settings: 80mg/kg, PO, QD×28
Description: Human ovarian cancer OVCAR-3 cells were subcultured and expanded in an RPMI-1640 culture medium containing 20% FBS and 0.01 mg/mL bovine insulin. BALB/c nude mice aged 6-8 weeks were taken and each subcutaneously injected with 5 × 10^6 cells to establish a tumor-bearing model. The tumor volume was monitored, and when the tumor volume reached about 150 mm^3, the animals were randomized into 5 groups according to body weight and tumor volume. The animals were given, by oral gavage, the vehicle or compounds to be tested (ZN-c3 and IE) once daily for a total of 28 days. During the period of administration, the tumor volume and the animal body weight were measured twice a week, and the animals' states were observed daily. At the endpoint, the animals were euthanized with carbon dioxide, and the subcutaneous tumors were isolated and weighed.
The data calculation formulae are shown below: The tumor volume (TV) was calculated using the formula 1/2×axb^2, where a and b represent the length and width measurements of the tumor, respectively.
The tumor growth inhibition rate (%TGITV) was calculated using the formula (1 - TVT/TVC) × 100%, where TVc represents the average tumor volume of the negative control group, and TVT represents the average tumor volume of the treatment group.
The relative tumor volume (RTV) was calculated using the formula Vt/V0, where V0 represents the tumor volume at the time of grouping, and Vt represents the tumor volume at each measurement.

[2] = Solid-state stability study of polymorphs; assay type: physicochemical; settings: for Initial purity (%): HPLC purity before storage
[3] = Equilibrium solubility study of polymorphs in different vehicles; assay type: physicochemical; settings: 37±2 °C, suspension ~10 mg/mL; for Equilibrium solubility: 24 h, 1440 min, in mg/mL (unit assumed)
Description: The equilibrium solubility of the crystal forms A, B, C, and D of compound (IE) was tested in water (H2O), fasted state simulated gastric fluid (FaSSGF), fasted state simulated intestinal fluid (FaSSIF), and fed state simulated intestinal fluid (FeSSIF). In the test, the solids were suspended in corresponding buffers to formulate suspensions (~10 mg/mL) and mixed at 37±2 °C. After 24 h, samples of the suspensions were taken. The supernatant was filtered, and the concentration was determined.

[4] = 25 °C/60% RH, 7 days (long-term)
[5] = 40 °C/75% RH, 7 days (accelerated)
[6] = 60 °C, 7 days (high-temperature, RH < 30%)
[7] = long-term conditions for 7 days
[8] = high-temperature and accelerated conditions for 7 days

Row | SMILES | Relative tumor inhibition (%) Day 28 [1] [%] | Relative tumor volume Day 28 [1] | Crystal form [2, 4] | Purity (%) [2, 4] [%] | Crystal form [2, 5] | Purity (%) [2, 5] [%] | Crystal form [2, 6] | Purity (%) [2, 6] [%] | Initial purity (%) [2] [%] | solid-state stability (in words) [2, 7] | Equilibrium solubility ([3]; FaSSGF) | Equilibrium solubility ([3]; FaSSIF) | Equilibrium solubility ([3]; FeSSIF) | solid-state stability (in words) [2, 8] | solubility thermodynamic at 24 h ([3]; fassgf) [µg/mL]
1 | C=CCn1c(=O)c2cnc(Nc3ccc(N4CCN(C)CC4)cc3)nc2n1-c1cccc(C(C)(C)O)n1 [AZD-1775, reference compound] | 58.28 | 2.18 | – | – | – | – | – | – | – | – | – | – | – | – | –
2 | Cc1cc(Nc2ncc3c(=O)n4n(c3n2)-c2cccc(n2)[C@](C)(O)CC/C=C\C4)ccc1OC1CCN(C)CC1 [Crystal form A of compound IE] | – | – | Crystal form A | 98.01 | Crystal form E | 98.11 | Crystal forms A+E | 98.06 | 98.08 | remained stable | >10 | 1.73 | 0.27 | – | –
3 | Cc1cc(Nc2ncc3c(=O)n4n(c3n2)-c2cccc(n2)[C@](C)(O)CC/C=C\C4)ccc1OC1CCN(C)CC1 [Crystal form B of compound IE] | – | – | Crystal form B | 98.01 | Crystal form B | 98.25 | Crystal form B | 98.24 | 97.97 | remained stable | >10 | 1.23 | 2.07 | remained stable | –
4 | Cc1cc(Nc2ncc3c(=O)n4n(c3n2)-c2cccc(n2)[C@](C)(O)CC/C=C\C4)ccc1OC1CCN(C)CC1 [Crystal form C of compound IE] | – | – | Crystal form C | 98.75 | Crystal form C | 98.73 | Crystal form C | 98.72 | 98.74 | remained stable | >10 | 0.710 | 1.299 | remained stable | –
5 | Cc1cc(Nc2ncc3c(=O)n4n(c3n2)-c2cccc(n2)[C@](C)(O)CC/C=C\C4)ccc1OC1CCN(C)CC1 [Crystal form D of compound IE] | – | – | Crystal form D | 97.82 | Crystal form D | 97.87 | Crystal form D | 97.74 | 97.79 | remained stable | – | 0.81 | 0.11 | remained stable | 8440 (≈ 15.6 mM)
